Read-outs that look alike come from different tables or passages of the source.
Legend:
[1] = system: LC3; assay: Autophagic flux: LC3-I lipidation into LC3-II by Western blot; type: cell-based; settings: Homo sapiens, 24 h, compound at 3 µM, SY5Y-APP^wt cells, vs control
From the text: Previous work dedicated to compounds of family C [22] has underlined the effect of our compounds on autophagic flux and the lysosomal degradation pathways. More precisely, the role of the amino side chains and their number was highlighted. Therefore, we assessed whether the activity of compounds involved the modulation of lysosomal activities toward the accumulation of APP-CTFs and AICD. Thus, we studied the effect of a selection of compounds on the autophagic flux, more particularly, we evaluated the effect of compounds 24, 33, 34, 57, 65, 67, 70, and 71 on two markers associated with autophagy: p62 and LC3-I lipidation into LC3-II. To the previous selection of efficient compounds decreasing Aβ1–x production and increasing CTFα and AICD, we added compound 65 with no cytotoxicity at 100 µM. As a comparison, we also selected compound 57 with a hydroxymethyl substituent as a control. In addition to CQ, bafilomycin A, a well-known inhibitor of autophagic flux, was used as a control. Treatment with compounds 67 and 71 induced an increase in p62 expression by 2.5 and 4-fold, respectively, compared to the control condition (Figure 3). […] An increase in the two markers was also observed with compound 57, but to a smaller extent (1.7-fold for p62 and 2-fold for LC3-I/LC3-II).
The human neuroblastoma cell line SY5Y-APP^695WT was maintained in Dulbecco’s modified Eagle medium (DMEM, high glucose, pyruvate—GIBCO, Life Technologies, Carlsbad, CA, USA) supplemented with 10% fetal bovine serum, 2 mM L-glutamine, 1 mM non-essential amino acids and penicillin/streptomycin (GIBCO, Life Technologies, Carlsbad, CA, USA) at 37 °C in a 5% CO2 humidified incubator [36]. For compound treatment, a 10 mM stock solution was diluted in freshly supplemented DMEM medium to obtain the precise final concentration of the drug. Cells were plated at a density of 5 × 10^5 cells per well into 12-well plates and cultured with 1 mL supplemented DMEM cell medium for 24 h before compound exposure. The following day, the cell medium was replaced with fresh medium containing the compounds diluted at the indicated concentrations. Cells were treated for 24 h. At the end of the treatments, the cell medium was collected and kept at −80 °C until use, cells were rinsed once with PBS and extracted in 100 µL of Laemmli buffer (10 mM Tris, 20% glycerol, and 2% sodium dodecyl sulfate) using a cell-scraper. The cell lysate was further sonicated (30 pulses of 0.5 s, 60 Hz) for 5 min. Total protein concentration was determined using the Pierce BCA Protein Assay Kit (Thermo Scientific, Waltham, MA, USA) according to the manufacturer’s instructions. Samples were stored at −80 °C until analysis.
Cell protein lysates were prepared for Western blot analysis by diluting the sample with 1 volume of NuPAGE® lithium dodecyl sulfate (LDS) 2X sample buffer supplemented with 20% NuPAGE® sample reducing agents (Invitrogen). Samples were heated for 10 min at 100 °C. Ten µg of total proteins per well were loaded onto precast 4–12% Criterion XT Bis-Tris polyacrylamide gels (Bio-Rad) and electrophoresis was achieved after applying a tension of 150 V for 90 min using a Criterion electrophoresis cell with the NuPAGE® MOPS SDS running buffer (1X). Proteins were transferred to a nitrocellulose membrane of […] pore size (G&E Healthcare, Madison, WI, USA) using the Criterion blotting system and applying a tension of 100 V for 45 min. To resolve proteins of low molecular weights such as carboxy-terminal fragments of APP, 12% Criterion XT Bis-Tris polyacrylamide gels (Bio-Rad, Hercules, CA, USA) were used, and electrophoresis was performed for 70 min at 150 V in a NuPAGE® MES SDS running buffer (1X). Proteins were transferred to a nitrocellulose membrane of 0.2 µm pore size (G&E Healthcare, Madison, WI, USA) at 100 V for 40 min. Molecular weight calibration was achieved using molecular weight markers (Novex and Magic Marks, Life Technologies, Carlsbad, CA, USA). […]

[2] = system: AICD (APP intracellular domain); assay: AICD level by Western blotting in SY5Y-APP^WT cells; type: cell-based, human; settings: concentration increasing AICD 20-fold vs untreated control, read-out: AICD (C20)
Summary of the method: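 SH-SY5Y cells stably expressing human wild-type APP695 treated with compounds for 24 h at 37 °C. αCTF and AICD measured by Western blot of lysates (10 µg protein, 12% Bis-Tris gels) as band intensity; C20 is concentration raising these fragments 20-fold over control.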

Molecule | fold induction at 3 µM [1] | EC (20-fold increase) ([2]; Homo sapiens) [µM] | EC (20-fold increase) [2] [µM]
CN(C)CCCc1ccc(-c2nn(-c3ccc(CN(C)C)cc3)cc2CN(C)C)cc1 [Compound 24, 3-[4-[4-(Dimethylaminomethyl)-1-[4-(dimethylaminomethyl)phenyl] Pyrazol-3-yl]phenyl]-N,N-dimethyl-propan-1-amine] | 3.3 | 2.2 | 
Cc1cn(-c2cccc(CO)c2)nc1-c1ccc(CN(C)CCCN(C)C)cc1 [Compound 57, (3-{3-[4-({[3-(Dimethylamino)propyl](methyl)amino}methyl)phenyl]-4-methyl-1H-pyrazol-1-yl}phenyl)methanol] | 2 | 8.5 | 
Cc1cn(-c2cccc(CN3CCN(C)CC3)c2)nc1-c1cccc(CN(C)C)c1 [Compound 65, N,N-dimethyl-1-[3-[4-methyl-1-[3-[(4-methylpiperazin-1-yl)methyl]phenyl]pyrazol-3-yl]phenyl]methanamine] | 2.63 | 2.8 | 
Cc1cn(-c2cccc(CN(C)C)c2)nc1-c1ccc(CN(C)CCCN(C)C)cc1 [Compound 67, {[4-(1-{3-[(Dimethylamino)methyl]phenyl}-4-methyl-1H-pyrazol-3-yl)phenyl]methyl} [3-(Dimethylamino)propyl]methylamine] | 5.2 | 1.2 | 
Cc1cn(-c2cccc(CN(C)C)c2)nc1-c1cccc(CN(C)CCCN(C)C)c1 [Compound 70, N′-[[3-[1-[3-(Dimethylaminomethyl)phenyl]-4-methyl-pyrazol-3-yl]phenyl] Methyl]-N,N,N′-trimethyl-propane-1,3-diamine] | 6 | 1.7 | 
Cc1cn(-c2cccc(CN3CCN(C)CC3)c2)nc1-c1cccc(CN(C)CCCN(C)C)c1 [Compound 71, N,N,N′-Trimethyl-N′-[[3-[4-methyl-1-[3-[(4-methylpiperazin-1-yl)methyl]phenyl]pyrazol-3-yl]phenyl]methyl]propane-1,3-diamine] | 6.5 | 1 | 
N′-[[4-[4-[3-(Dimethylamino)propyl]-3-[4-[3-(dimethylamino)propyl]phenyl] Pyrazol-1-yl]phenyl]methyl]-N,N,N′-trimethyl-propane-1,3-diamine [Compound 33] |  |  | 8.9
